Assays:
[1] = test system: Enterobacteriaceae, non-fermenting Gram-positive bacilli, Staphylococcus spp., Streptococcus spp., Listeria spp. and yeasts; test: Reduction of nitrocoumarin derivatives by most microorganisms (results not presented); assay type: cell-based
[2] = test system: E. coli (NCTC strain 10418); test: Fluorescent signal generated by E. coli reducing nitrocoumarins (nitroaryl reductase activity); assay type: cell-based, Escherichia coli
Description: A sample of the 7-nitrocoumarin derivative is dissolved in 4 ml of hot, distilled water. The mass dissolved to make the stock solution is such that the final concentration of the compound in the assay is 0.105 mmol/l. This solution is added to 96 ml of Mueller-Hinton broth and the mixture is sterile-filtered.
(§1) The E. coli was grown for 24 hours at 35° C. on Columbia agar supplemented with sheep blood. The bacteria were then resuspended in sterile, distilled water and their density was adjusted to 0.5 on the MacFarland scale (i.e. about 10^8 cells/ml). This suspension was then diluted 100-fold in sterile Mueller-Hinton broth (i.e. to a final density of about 10^6 cells/ml).
(§2) Fifty microliters of each nitrocoumarin solution plus 50 μl of bacterial suspension were then added to the wells of a microtiter plate. The plates were incubated at 35° C. and the optical density and fluorescence of each well was read every 30 min for a total of 4 hours. Optical density (690 nm) readings were made using an Anthos 2001 spectrophotometer (Labtech International Limited), and fluorescence (excitation at 365 nm and emission at 440 nm) readings were made on a Biolite F1 2001 fluorometer (Labtech International Limited).
The effect of the concentration of 7-nitrocoumarin-3-carboxylic acid on the sensitivity of the assay to detect E. coli (NCTC strain 10418) was investigated at concentrations of the indicator ranging from 0 to 0.262 mmol/l. All other conditions were identical to those described in section A above.

Hafnia alvei = test: Growth of wild Enterobacteriaceae strain in Mueller-Hinton broth (optical density); assay type: cell-based; details: 0.17 mmol/l
Description: as §1, §2
(§3) This experiment was designed to investigate whether or not it would be possible to detect Enterobacteriaceae other than E. coli using 7-nitrocoumarin-3-carboxylic acid. The conditions for this experiment were similar to those described for the first experiment (section A).
(§4) Five wild strains belonging to the species Citrobacter diversus, Enterobacter agglomerans, Hafnia alvei, Morganella morganii and Shigella sonnei were tested

Citrobacter diversus = test: as above; assay type: cell-based; details: 0.17 mmol/l
Description: as §1, §2, §3, §4

Morganella morganii = test: as above; assay type: cell-based; details: 0.17 mmol/l
Description: as §1, §2, §3, §4

Shigella sonnei = test: as above; assay type: cell-based; details: 0.17 mmol/l
Description: as §1, §2, §3, §4

Enterobacter agglomerans = test: as above; assay type: cell-based; details: 0.17 mmol/l
Description: as §1, §2, §3, §4

O=C(O)c1cc2ccc([N+](=O)[O-])cc2oc1=O [7-nitrocoumarin-3-carboxylic acid]
Reduction to give a fluorescent signal (in words) [1]: All were capable of reducing | Fluorescent signal ([2]; 0.005 mmol/l, 0 min): 0 | Fluorescent signal ([2]; 0.005 mmol/l, 30 min): −134 | Fluorescent signal ([2]; 0.005 mmol/l, 60 min): −164 | Fluorescent signal ([2]; 0.005 mmol/l, 90 min): −122 | Fluorescent signal ([2]; 0.005 mmol/l, 120 min): −94 | Fluorescent signal ([2]; 0.005 mmol/l, 150 min): −9 | Fluorescent signal ([2]; 0.005 mmol/l, 180 min): 406 | Fluorescent signal ([2]; 0.005 mmol/l, 210 min): 1307 | Fluorescent signal ([2]; 0.005 mmol/l, 240 min): 2466 | Fluorescent signal ([2]; 0.013 mmol/l, 0 min): 0 | Fluorescent signal ([2]; 0.013 mmol/l, 30 min): −113 | Fluorescent signal ([2]; 0.013 mmol/l, 60 min): −141 | Fluorescent signal ([2]; 0.013 mmol/l, 90 min): −76 | Fluorescent signal ([2]; 0.013 mmol/l, 120 min): −22 | Fluorescent signal ([2]; 0.013 mmol/l, 150 min): 174 | Fluorescent signal ([2]; 0.013 mmol/l, 180 min): 1068 | Fluorescent signal ([2]; 0.013 mmol/l, 210 min): 3073 | Fluorescent signal ([2]; 0.013 mmol/l, 240 min): 5902 | Fluorescent signal ([2]; 0.026 mmol/l, 0 min): 0 | Fluorescent signal ([2]; 0.026 mmol/l, 30 min): −91 | Fluorescent signal ([2]; 0.026 mmol/l, 60 min): −110 | Fluorescent signal ([2]; 0.026 mmol/l, 90 min): −39 | Fluorescent signal ([2]; 0.026 mmol/l, 120 min): 71 | Fluorescent signal ([2]; 0.026 mmol/l, 150 min): 467 | Fluorescent signal ([2]; 0.026 mmol/l, 180 min): 2311 | Fluorescent signal ([2]; 0.026 mmol/l, 210 min): 6028 | Fluorescent signal ([2]; 0.026 mmol/l, 240 min): 11387 | Fluorescent signal ([2]; 0.052 mmol/l, 0 min): 0 | Fluorescent signal ([2]; 0.052 mmol/l, 30 min): −83 | Fluorescent signal ([2]; 0.052 mmol/l, 60 min): −76 | Fluorescent signal ([2]; 0.052 mmol/l, 90 min): 33 | Fluorescent signal ([2]; 0.052 mmol/l, 120 min): 241 | Fluorescent signal ([2]; 0.052 mmol/l, 150 min): 861 | Fluorescent signal ([2]; 0.052 mmol/l, 180 min): 4004 | Fluorescent signal ([2]; 0.052 mmol/l, 210 min): 10584 | Fluorescent signal ([2]; 0.052 mmol/l, 240 min): 19530 | Fluorescent signal relative to that given by any of the other substrates ([2]; 0.105 mmol/l): more than twice as high | Fluorescent signal ([2]; 0.105 mmol/l, 0 min): 0 | Fluorescent signal ([2]; 0.105 mmol/l, 30 min): −67 | Fluorescent signal ([2]; 0.105 mmol/l, 60 min): 4 | Fluorescent signal ([2]; 0.105 mmol/l, 90 min): 181 | Fluorescent signal ([2]; 0.105 mmol/l, 120 min): 586 | Fluorescent signal ([2]; 0.105 mmol/l, 150 min): 1694 | Fluorescent signal ([2]; 0.105 mmol/l, 180 min): 6724 | Fluorescent signal ([2]; 0.105 mmol/l, 210 min): 17495 | Fluorescent signal ([2]; 0.105 mmol/l, 240 min): 31314 | Extent of reduction of the substrate (in words) ([2]; 0.105 mmol/l, end of the four-hour assay): reduced to a far greater extent than any of the other nitrocoumarins | Fluorescent signal ([2]; 0.157 mmol/l, 0 min): 0 | Fluorescent signal ([2]; 0.157 mmol/l, 30 min): −74 | Fluorescent signal ([2]; 0.157 mmol/l, 60 min): 48 | Fluorescent signal ([2]; 0.157 mmol/l, 90 min): 280 | Fluorescent signal ([2]; 0.157 mmol/l, 120 min): 811 | Fluorescent signal ([2]; 0.157 mmol/l, 150 min): 2231 | Fluorescent signal ([2]; 0.157 mmol/l, 180 min): 8264 | Fluorescent signal ([2]; 0.157 mmol/l, 210 min): 21022 | Fluorescent signal ([2]; 0.157 mmol/l, 240 min): 36517 | Fluorescent signal ([2]; 0.210 mmol/l, 0 min): 0 | Fluorescent signal ([2]; 0.210 mmol/l, 30 min): −6 | Fluorescent signal ([2]; 0.210 mmol/l, 60 min): 88 | Fluorescent signal ([2]; 0.210 mmol/l, 90 min): 354 | Fluorescent signal ([2]; 0.210 mmol/l, 120 min): 979 | Fluorescent signal ([2]; 0.210 mmol/l, 150 min): 2588 | Fluorescent signal ([2]; 0.210 mmol/l, 180 min): 9000 | Fluorescent signal ([2]; 0.210 mmol/l, 210 min): 21589 | Fluorescent signal ([2]; 0.210 mmol/l, 240 min): 37823 | Fluorescent signal ([2]; 0.262 mmol/l, 0 min): 0 | Fluorescent signal ([2]; 0.262 mmol/l, 30 min): 3 | Fluorescent signal ([2]; 0.262 mmol/l, 60 min): 131 | Fluorescent signal ([2]; 0.262 mmol/l, 90 min): 446 | Fluorescent signal ([2]; 0.262 mmol/l, 120 min): 1190 | Fluorescent signal ([2]; 0.262 mmol/l, 150 min): 3037 | Fluorescent signal ([2]; 0.262 mmol/l, 180 min): 9721 | Fluorescent signal ([2]; 0.262 mmol/l, 210 min): 22066 | Fluorescent signal ([2]; 0.262 mmol/l, 240 min): 37949 | Optical density (690 nm) (Hafnia alvei; 0 min): 0.000 | Optical density (690 nm) (Hafnia alvei; 30 min): −0.001 | Optical density (690 nm) (Hafnia alvei; 60 min): 0.004 | Optical density (690 nm) (Hafnia alvei; 90 min): 0.009 | Optical density (690 nm) (Hafnia alvei; 120 min): 0.016 | Optical density (690 nm) (Hafnia alvei; 150 min): 0.034 | Optical density (690 nm) (Hafnia alvei; 180 min): 0.092 | Optical density (690 nm) (Hafnia alvei; 210 min): 0.149 | Optical density (690 nm) (Hafnia alvei; 240 min): 0.246 | Optical density (690 nm) (Citrobacter diversus; 0 min): 0.000 | Optical density (690 nm) (Citrobacter diversus; 30 min): 0.000 | Optical density (690 nm) (Citrobacter diversus; 60 min): 0.005 | Optical density (690 nm) (Citrobacter diversus; 90 min): 0.011 | Optical density (690 nm) (Citrobacter diversus; 120 min): 0.020 | Optical density (690 nm) (Citrobacter diversus; 150 min): 0.050 | Optical density (690 nm) (Citrobacter diversus; 180 min): 0.092 | Optical density (690 nm) (Citrobacter diversus; 210 min): 0.143 | Optical density (690 nm) (Citrobacter diversus; 240 min): 0.250 | Optical density (690 nm) (Morganella morganii; 0 min): 0.000 | Optical density (690 nm) (Morganella morganii; 30 min): −0.010 | Optical density (690 nm) (Morganella morganii; 60 min): −0.010 | Optical density (690 nm) (Morganella morganii; 90 min): −0.005 | Optical density (690 nm) (Morganella morganii; 120 min): 0.003 | Optical density (690 nm) (Morganella morganii; 150 min): 0.020 | Optical density (690 nm) (Morganella morganii; 180 min): 0.064 | Optical density (690 nm) (Morganella morganii; 210 min): 0.116 | Optical density (690 nm) (Morganella morganii; 240 min): 0.187 | Optical density (690 nm) (Shigella sonnei; 0 min): 0.000 | Optical density (690 nm) (Shigella sonnei; 30 min): −0.001 | Optical density (690 nm) (Shigella sonnei; 60 min): 0.000 | Optical density (690 nm) (Shigella sonnei; 90 min): 0.002 | Optical density (690 nm) (Shigella sonnei; 120 min): 0.013 | Optical density (690 nm) (Shigella sonnei; 150 min): 0.042 | Optical density (690 nm) (Shigella sonnei; 180 min): 0.097 | Optical density (690 nm) (Shigella sonnei; 210 min): 0.159 | Optical density (690 nm) (Shigella sonnei; 240 min): 0.246 | Optical density (690 nm) (Enterobacter agglomerans; 0 min): 0.000 | Optical density (690 nm) (Enterobacter agglomerans; 30 min): −0.002 | Optical density (690 nm) (Enterobacter agglomerans; 60 min): 0.002 | Optical density (690 nm) (Enterobacter agglomerans; 90 min): 0.006 | Optical density (690 nm) (Enterobacter agglomerans; 120 min): 0.027 | Optical density (690 nm) (Enterobacter agglomerans; 150 min): 0.057 | Optical density (690 nm) (Enterobacter agglomerans; 180 min): 0.155 | Optical density (690 nm) (Enterobacter agglomerans; 210 min): 0.225 | Optical density (690 nm) (Enterobacter agglomerans; 240 min): 0.323

Source: US20020031795A1, “Nitrocoumarins for detecting all micro-organisms” (priority 1998, published 2002)
